Values quoted from earlier work in patent publication US12404360B2, “Method of preparing graft copolymer” (LG CHEM, LTD., priority 2019, dated 2025).

Key:
[1] = not given; remark: listed apart in the source

Row | Structure (SMILES) | 10-hour half-life decomposition temperature in water [°C] | Solubility in water at 20° C. [1] [g/100 g] | 10-hour half-life decomposition temperature in toluene [°C] | 10-hour half-life decomposition temperature in methanol (in methanol) [°C]
1 | CC(C)(/N=N/C(C)(C)C(=O)NCCO)C(=O)NCCO [VA-086] | 86 | 2.4 | – | –
2 | CC(C)(/N=N/C(C)(C)C(=N)NCCC(=O)O)C(=N)NCCC(=O)O [VA-057] | 57 | 14 | – | –
3 | CC(C)CC(C)(C#N)/N=N/C(C)(C#N)CC(C)C (stereo not drawn) [Example V-65] | – | < 0.1 | 51 | –
4 | CC(C#N)(CCC(=O)O)/N=N/C(C)(C#N)CCC(=O)O (stereo not drawn) [VA-501] | 69 | 0.1 | – | –
5 | CC(C)(/N=N/C(C)(C)C1=NCCN1)C1=NCCN1 [VA-044] | 44 | 35.2 | – | –
6 | CC(C)(C#N)/N=N/C(C)(C)C#N [AIBN] | – | < 0.1 | 65 | –
7 | CC(C)(/N=N/C(C)(C)C1=NCCN1)C1=NCCN1 [VA-061] | – | 0.5 | – | 61
8 | CC(C)(/N=N/C(C)(C)C(=N)N)C(=N)N [VA-050] | 56 | – | – | –
